Data taken from patent US7030087B2, “Synthetic approach to designed chemical structures” (priority 1996, dated 2006).

Columns and labels:
[1] = system: endotoxin from E. coli 055:B5; assay: Limulus amoebocyte lysate assay (E-TOXATE), endotoxin neutralization; type: biochemical
How it was run: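 Peptide preincubated with LPS 5 min at room temperature in 1:2 pyrogen-free saline (pH 6.4), then amoebocyte lysate added (E-TOXATE kit). Neutralization of endotoxin activity scored by Limulus lysate reaction; BG38L served as positive control.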

P. aeruginosa = assay: Bactericidal activity assay; type: cell-based, Pseudomonas aeruginosa type 1
How it was run: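 Log-phase P. aeruginosa type 1 (smooth clinical isolate) was grown in brain heart infusion broth, washed, and diluted 1:10 from about 3×10^8 CFU/ml into 0.08M citrate phosphate buffer at pH 5.6 or pH 7.0. Peptides were tested from about […] to 4.1×10^−9M, with LD50 derived from dose response by linear regression.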

EC (endothelial cells) = assay: EC proliferation, 3[H]thymidine incorporation assay; type: cell-based
Procedure: Since the in vivo situation of tumor associated EC involves the low expression or even absence of ICAM-1, the next set of experiments aimed to study the ability to reinduce ICAM-I expression after bFBF preincubation. […] In these experiments, HUVEC were pretreated for 3 days with bFGF, subsequently PF4 was added for 3 days and, where indicated in the last 16 hours of culture 4 ng/ml TNFα was added. Human umbilical vein derived endothelial cells (HUVEC) were harvested from normal human umbilical cords by perfusion with 0.125% trypsin/EDTA as described previously. Cells were cultured in fibronectin (FN) coated tissue culture flasks in culture medium (RPMI-1640 with 20% human serum (HS), supplemented with 2 mM glutamine and 100 U/ml penicillin and 0.1 mg/ml streptomycin). Immunofluorescence using indirect PE-conjugated reagents required three separate incubations. 1×10^5 EC were fixed for 1 hour in 1% paraformaldehyde, resuspended in 20 μl appropriately diluted Mab and incubated for 1 hour on ice. Subsequently, cells were washed two times in PBS/BSA (0.1%) and incubated for another 30 minutes with biotinylated rabbit-anti-mouse Ig (Dako, Glostrup, Denmark). After another 2 washings, cells were incubated with streptavidin-phycoerythrin conjugate (Dako). Stained cells were analyzed on a FACScan flowcytometer. Data analysis was performed using PCLysys software (Becton Dickinson, Mountain View, Calif.). Statistical significance of observed differences was determined using the Student's t-test.
EC proliferation was measured using a ^3[H]thymidine incorporation assay. EC were seeded in flatbottomed 96-well tissue culture plates (5000 cells/well) and grown for 3 days, in culture medium. In some cultures the proliferation of EC was enhanced by incubation with 10 ng/ml bFGF. During the list 6 hours of the assay, the culture was pulsed with 0.5 μCi [methyl-^3H]thymidine/well. Results are expressed as the arithmetic mean counts per minute (cpm) of triplicate cultures.

HUVEC = assay: Leukocyte/EC adhesion assay; type: cell-based, human; conditions: bFGF 10 ng/ml + PF4 100 μg/ml
Procedure: Functional impact for the observed phenomena was provided by leukocyte/EC adhesion assays as described earlier (Griffioen et al. Cancer Res. 56:1111–1117, 1996). […] TNF mediated upregulation of adhesion to bFGF preincubated HUVEC in the presence of PF4 was similar to the adhesion to TNF treated control cells. PHA-activated peripheral blood T lymphocyte were adhered for 1 hour at 37° C. to TNF-α (4 ng/ml), bFGF (10 ng/ml)+PF4 (100 μg/ml) treated, or control (HUVEC). Non-adhering cells were removed and adhered cells were enumerated by an inverted microscope. Values of one representative experiment out of three are expressed as numbers of adhered cells per high power field. Statistical significance is determined by the Student's t-test.

platelet factor 4 [PF4]
endotoxin neutralizing activity (in words) [1]: no endotoxin neutralizing activity
Endotoxin Neutralizing Activity, % neutralization ([1]; 5.0 × 10^−5 M peptide, 0.02 U (0.2 pg) endotoxin from E. coli 055:B5, Table 3): 0%
Endotoxin Neutralization, % neutralization ([1]; 5.0 × 10^−6 M Peptide, 0.02 U (0.2 pg) endotoxin from E. coli 055:B5, Table 4): 0%
Endotoxin Neutralization, % at the effective dose ([1]; Table 3, at the ED printed in the same cell): 23%
Endotoxin neutralization, ED, Effective M dose ([1]; Table 3, dose at which the % in brackets was found): 50 µM
Endotoxin Neutralization, % at the effective dose ([1]; Table 4, at the Ed): 0%
Endotoxin Neutralization, Ed, Effective M dose ([1]; Table 4, dose at which the % in brackets was found): 50 µM
Bactericidal Activity, % killing (P. aeruginosa; 1.2 × 10^−7 M Peptide, 5 × 105 P. aeruginosa): 0%
Bactericidal Activity, % killing at the effective dose (P. aeruginosa; at the Ed for the same peptide): 19%
Bactericidal Activity, Ed, Effective M dose (P. aeruginosa; dose at which the % in brackets was found): 1.5 µM
(3H)-thymidine incorporation (EC (endothelial cells); expt 1, 1 μg/ml, 10 ng/ml bFGF, medium 28815 ± 1007): 28782 ± 815 cpm
(3H)-thymidine incorporation (EC (endothelial cells); expt 1, 1 μg/ml, no bFGF, medium 4044 ± 206): 4656 ± 456 cpm
(3H)-thymidine incorporation (EC (endothelial cells); expt 1, 10 μg/ml, 10 ng/ml bFGF, medium 28815 ± 1007): 23868 ± 402 cpm
(3H)-thymidine incorporation (EC (endothelial cells); expt 1, 10 μg/ml, no bFGF, medium 4044 ± 206): 4066 ± 351 cpm
(3H)-thymidine incorporation (EC (endothelial cells); expt 1, 100 μg/ml, 10 ng/ml bFGF, medium 28815 ± 1007): 4655 ± 421 cpm
(3H)-thymidine incorporation (EC (endothelial cells); expt 1, 100 μg/ml, no bFGF, medium 4044 ± 206): 1651 ± 172 cpm
(3H)-thymidine incorporation (EC (endothelial cells); expt 2 (second, r19), 1 μg/ml, 10 ng/ml bFGF, medium 52808 ± 4092): 43524 ± 5318 cpm
(3H)-thymidine incorporation (EC (endothelial cells); expt 2 (second, r19), 1 μg/ml, no bFGF, medium 6780 ± 713): 6171 ± 1227 cpm
(3H)-thymidine incorporation (EC (endothelial cells); expt 2 (second, r19), 10 μg/ml, 10 ng/ml bFGF, medium 52808 ± 4092): 8337 ± 704 cpm
(3H)-thymidine incorporation (EC (endothelial cells); expt 2 (second, r19), 10 μg/ml, no bFGF, medium 6780 ± 713): 3547 ± 317 cpm
(3H)-thymidine incorporation (EC (endothelial cells); expt 2 (second, r19), 100 μg/ml, 10 ng/ml bFGF, medium 52808 ± 4092): 1654 ± 375 cpm
(3H)-thymidine incorporation (EC (endothelial cells); expt 2 (second, r19), 100 μg/ml, no bFGF, medium 6780 ± 713): 947 ± 170 cpm
bFGF mediated inhibition of leukocyte adhesion to cultured HUVEC (in words) (HUVEC): completely abolished
